In patent publication US7361685B2, “Compounds for use in the treatment of skin conditions” (Oregon Health & Science University, priority 2001, dated 2008):
Values joined by “and” are separate entries in the source; they are usually repeats but may differ in a detail not shown here. Identical values can stand only once.

Columns and labels:
[1] = test system: mouse melan-a cell line; experiment: Microplate culture and sulforhodamine B (SRB) proliferation assay, melan-a melanocytes; format: cell-based
Procedure: A supplemental growth medium of 10% foetal bovine serum (FBS) was added to the […] microtiter plates. The plates were incubated at 37° C. in a 10% CO2, 90% air humidified atmosphere for 4 days. At the end of the incubation, an SRB assay was performed. Briefly, cells attached to the bottom of the plate were fixed by addition of cold trichloroacetic acid (TCA, 4° C., Aldrich, Dorset, UK) on the top of the growth medium (final TCA 20% w/v). The plate was placed at 4° C. for 1 hour before being gently washed five times with tap water. It was allowed to dry in air, or aided with a hair dryer to speed up the drying process, then 50 μl of […] SRB dissolved in 1% acetic acid in water was added to each well for 30 min. At the end of the staining period, unbound SRB was removed by washing 4 times with 1% acetic acid. The plate was air dried again, and 150 μl of 10 mM aqueous Tris base (Sigma-Aldrich Co. Ltd, Irvine, UK) was added into each well to solubilize the cell-bound dye. […] A control assay was carried out on cells incubated without test compound. There were 2 or 3 series of experiments, each of which consisted of six replicate experiments.
Various compounds of formula (1) were synthesised and tested for melanocyte (mouse melan-a) proliferant activity in-vitro. Cells were incubated with the test compound for 4 days, as described above.
Percentage cell growth was obtained with a given compound calculated as (optical density in the presence of the compound/control optical density)×100.
Melan-a cell proliferant activity for tested compounds was compared with that obtained with piperine. […] All figures are given with Standard Error of the Mean.

[2] = test system: melan-a cells; experiment: Dendricity of melan-a cells by observation under microscope; format: cell-based, mouse; set-up: key to Dendricity of RV-A08: +++: highly dendiitic; ++: moderately dendritic; +: weakly dendritic; key to Dentricity of RV-A07 / Dendricity of RV-A09 / Dendricity of RV-A10 / Dendricity: +++: highly dendritic; ++: moderately dendritic; +: weakly dendritic; −: no effect
Description: Effect on dendricity of melan-a cells by the test compounds was by observation under microscope. Dendricity is relevant to vitiligo since normal skin melanocytes have dendrites, but in vitiligo the melanocytes seem to lose these before they disappear from the patches.

Row | Molecule | Percentage cell growth ([1]; 1 μM, 4 days, ± SEM) | Stimulant activity ([1]; 10 μM) | Percentage cell growth (Repeated experiments) Test cpd. ([1]; 10 μM test compound, 4 days, OD vs control x100, ± SEM) | Percentage cell growth ([1]; 10 μM, 4 days, ± SEM) | Percentage cell growth ([1]; 25 μM, 4 days, ± SEM) [%] | Percentage cell growth ([1]; 50 μM, 4 days, ± SEM) | Percentage cell growth ([1]; 100 μM, 4 days, ± SEM) [%] | Dentricity of RV-A07 ([2]; 10 μM) | Dendricity ([2]; 1 μM (tables RV-C04, RV-C05)) | Dendricity ([2]; 10 μM (tables RV-C04, RV-C05)) | Dendricity ([2]; 50 μM (tables RV-C04, RV-C05)) | Dendricity ([2]; 100 μM (tables RV-C04, RV-C05)) | Dendricity of RV-A09 ([2]; 10 μM) | Dendricity of RV-A08 ([2]; 10 μM) | Dendricity of RV-A10 ([2]; 10 μM) | Dendricity of RV-A10 ([2]; 50 μM) | Percentage cell growth (Repeated experiments) Piperine ([1]; 10 μM piperine run alongside the test compound, 4 days, ± SEM)
1 | O=C(/C=C/C=C/c1ccc2c(c1)OCO2)N1CCOCC1 [RV-A02, 5-E,E-piperinoyl morpholine] | 125 ± 10% | Positive | 156 ± 58% and 187 ± 40% and 153 ± 19% | 167 ± 17 % | 171 ± 8 | 168 ± 12**□ % |  |  |  |  |  |  |  |  |  |  | 
2 | CNC(=O)/C=C/C=C/c1ccc2c(c1)OCO2 [RV-A07, 5-E,E-piperinoylmethylamine] | 140 ± 12 % | Positive |  | 170 ± 24 % |  | 71 ± 5% | 46 ± 2 | ++ |  |  |  |  |  |  |  |  | 
3 | 7-(3,4-methylenedioxy phenyl)-heptanoic acid piperidineamide [RV-C05] | 118 ± 1% |  |  | 160 ± 5**♦ % |  | 158 ± 19 % | 113 ± 15 |  | + | ++ | ++ | + |  |  |  |  | 
4 | CC(C)NC(=O)/C=C/C=C/c1ccc2c(c1)OCO2 [RV-A09, 5-E,E-piperinoylisopropylamine] | 187 ± 15 % | Positive |  | 224 ± 19 % |  | 85 ± 5% | 42 ± 6 |  |  |  |  |  | +++ |  |  |  | 
5 | O=C(CCCCc1ccc2c(c1)OCO2)NC1CCCCC1 [RV-C04, 5-(3,4-methylenedioxyphenyl)-pentanoic acid cyclohexylamide] | 129 ± 6 % |  |  | 192 ± 6 % |  | 192 ± 10 % | 191 ± 12 |  | + | +++ | +++ | +++ |  |  |  |  | 
6 | CCNC(=O)/C=C/C=C/c1ccc2c(c1)OCO2 [RV-A08] | 139 ± 27 % | Positive |  | 200 ± 14 % |  | 81 ± 12% | 62 ± 13 |  |  |  |  |  |  | +++ |  |  | 
7 | O=C(/C=C/C=C/c1ccc2c(c1)OCO2)NC1CCCCC1 [RV-A10, 5-E,E-piperinoyl cyclohexylamine] | 301 ± 20**□ % | Positive |  | 308 ± 29 % |  | 155 ± 22**□ % | 100 ± 13 |  |  |  |  |  |  |  | +++ | ++ | 
8 | O=C(/C=C/C=C/c1ccc2c(c1)OCO2)N1CCCCC1 [Piperine, reference compound] | 147 ± 11**♦ % and 211 ± 16**♦ % and 216 ± 14**♦ % and 221 ± 17**♦ % and 236 ± 30 % and 191 ± 12**♦ % and 161 ± 13 % |  |  | 192 ± 13**♦ % and 216 ± 33 % and 236 ± 17 % and 263 ± 16 % and 302 ± 17 % and 216 ± 18 % and 192 ± 2**♦ % | 167 ± 19 |  |  |  |  |  |  |  |  |  |  |  | 236 ± 17% and 263 + 16** % and 302 ± 17 % and 210 ± 65% and 170 ± 22% and 155 ± 19% and 216 ± 33 %
